Experiments:
NF-κB = NF-κB cell line, CPPA 6.25, 12.5, 25 μM, 24 h, S9 fraction (Fig. 2b)
AP1 = AP1 cell line, CPPA 6.25, 12.5, 25 μM, 24 h, S9 fraction (Fig. 2b)
[1] = system: Hepa-ToxMOA cell lines (HepG2); conditions: four Hepa-ToxMOA cell lines, increasing CPPA concentration (6.25, 12.5, 25 μM), 1% S9 treatment, 24 h
[2] = system: AP1, P53, Nrf2, and NF-κB; conditions: for Toxic (natural products exceeding Score 3, Venn diagram list Fig. 3c): human
CYP2C19 = system: CYP2C19; set-up: method as in PMID 25815638; conditions: causing mitochondrial dysfunction and hepatotoxicity; cited from earlier work
CYP3A4 [3] = conditions: cited from earlier work
CYP3A = system: CYP3A; set-up: method as in PMID 30778299; conditions: cited from earlier work
CYP3A5 = system: CYP3A5; set-up: method as in doi:10.1016/j.ccr.2020.213600; conditions: cited from earlier work
[4] = system: diabetic C57BL/KsJ-db/db mice; set-up: method as in PMID 29554661; conditions: cited from earlier work
diabetic mice = system: diabetic mice; set-up: method as in PMID 34678724; conditions: cited from earlier work
liver fibrosis = system: liver fibrosis; set-up: method as in PMID 30502394; conditions: cited from earlier work
CYP3A4 [5] = system: CYP3A4; set-up: method as in PMID 20959500; conditions: via the activation of NR1I2; cited from earlier work

In the case of `O=P1(N(CCCl)CCCl)NCCCO1` (stereo not drawn) [CPPA, cyclophosphamide, reference compound], the GFP intensity (NF-κB) is reported as “increased in a dose-dependent manner”, the GFP intensity (P53) is reported as “tendency to increase, although not in a dose-dependent manner” and the GFP intensity (Nrf2) is reported as “increased in a dose-dependent manner”. For the same molecule, the GFP intensity (AP1) was “increased in a dose-dependent manner”, the cell viability [1] was “significantly reduced” and the “GFP intensity with S9 fractions compared to without S9 fractions” value [2] was “higher”.
For `O=C(O)c1cc(O)c2c(c1)C(=O)c1cccc(O)c1C2=O` [Rhein], the “metabolic activation by CYP2C19” value (CYP2C19) is given as “metabolically activated by CYP2C19”.
In the case of `CC(=O)O[C@H]1C[C@]2(O)[C@@H]3CC[C@@H]4C[C@@H](O)CC[C@]4(C)[C@H]3CC[C@]2(C)[C@H]1c1ccc(=O)oc1` [Bufotalin], the “substrate of CYP3A4” value (CYP3A4 [3]) is given as “substrates”, the “metabolism by CYP3A” value (CYP3A) is given as “metabolized by CYP3A to 5ß-hydroxy-bufotalin” and the “substrate of CYP3A5” value (CYP3A5) is given as “substrates”. The “active (increased GFP intensity) for all Hepa-ToxMOA cell lines (Fig. 3d)” value [2] was “commonly active”, the “sum of activity scores compared between metabolic activation and non-metabolic conditions” value [2] was “more active without metabolic activation” and the “Toxic (natural products exceeding Score 3, Venn diagram list Fig. 3c)” value [2] was “S9- only”.
In the case of `CC(C)=CC[C@H](O)C1=CC(=O)c2c(O)ccc(O)c2C1=O` [Alkannin], the “effect on liver injury” value [4] is listed as “hepatoprotective effects”, the “sum of activity scores compared between metabolic activation and non-metabolic conditions” value [2] is listed as “more active without metabolic activation” and the “toxicity in Hepa-ToxMOA cell lines under metabolic activity conditions” value [2] is listed as “reduced toxicity”. The “Toxic (natural products exceeding Score 3, Venn diagram list Fig. 3c)” value [2] was “S9- only”.
For `CC(C)=CCc1c(O)cc2oc3cc(O)c(O)c(CC=C(C)C)c3c(=O)c2c1O` [Gamma-mangostin], the “fasting blood glucose levels” value (diabetic mice) is listed as “attenuate fasting blood glucose levels” and the “effect on liver fibrosis” value (liver fibrosis) is listed as “alleviate liver fibrosis”.
In the case of `CC[C@]1(O)C[C@@H]2CN(CCc3c([nH]c4ccccc34)[C@@](C(=O)OC)(c3cc4c(cc3OC)N(C)[C@H]3[C@@](O)(C(=O)OC)[C@H](OC(C)=O)[C@]5(CC)C=CCN6CC[C@]43[C@@H]65)C2)C1` [vinblastine, reference compound], the “substrate of CYP3A4” value (CYP3A4 [3]) is listed as “substrate” and the “induction of CYP3A4” value (CYP3A4 [5]) is listed as “induce CYP3A4”.

Source: PMC10881971, “Hepa-ToxMOA: a pathway-screening method for evaluating cellular stress and hepatic metabolic-dependent toxicity of natural products” (Scientific Reports, 2024)
